Measured values as given in publication PMC6581923 (Journal of Molecular Neuroscience, 2018).

Assay: Efficiency of Traversing Eye to Retina (EtE) of FITC labeled peptides given in eye drops
Assay type: in vivo, rat (male)
Description: In order to trace the drugs, peptides were labeled with fluorescein isothiocyanate (FITC) using a FITC Protein Labeling Kit from ChangRu Biotech Ltd. (Guangzhou, China) according to the manufacturer’s protocol. After the labeling reaction, gel filtration was used to remove the free FITC. In order to determine the amount of the residual free FITC, the peptides were submitted to ultrafiltration using Amicon Ultra – 0.5 mL (Millipore, USA) with a molecular sieve of 2000 Da. After centrifugation (1000×g, 10 min) the peptide was subjected to fluorescence measurements performed with the multi-wavelength scanner Victor 3 (GE, USA) at the excitation of 495 nm and the emission of 520 nm. Protein concentrations were determined using the K4000 Bradford Protein Quantification Kit (Innovative, Guangzhou, China). The labeling efficiency was calculated using the following formula: label efficiency (LE) = fluorescence value (FV)/peptide mass (mol) (PM), representing the fluorescence intensity (AU) per mol of peptide (mol).
Male rats with body weight from 160 to 180 g were purchased from the Medical and Experimental Animal Center (Guangdong, China). Rats were randomly assigned to one of the experimental groups (7 rats per group) and subjected to eye drops with FITC labeled peptides (100 nmol/kg) and PBS as control. Rats were sacrificed by anesthesia 2 h after the eye drop administration and the retina was separated, weighed, washed three times with PBS and divided into two parts. One part was prepared on the glass slide with glycerin and subjected to fluorescence microscopic observation of FITC with 495 nm excitation/520 nm emission. All images, focused on the left upper regions of the retina, were taken with 500 ms exposure time. The other part of the retina was subjected to grinding and ultrasonication in PBS at a concentration of 100 mg weight tissue per milliliter of PBS. The supernatant was collected by centrifugation and the fluorescence intensity in the supernatant (100 uL) was determined. The valid fluorescence intensity (FI) for each sample treated with FITC labeled peptide was corrected by subtracting the fluorescence value of the sample treated with PBS, which was used as a blank background. The Efficiency of Traversing Eye to Retina (EtE) was expressed as the percentages of the FITC labeled peptide mass in the retina to the total FITC labeled peptide mass. The EtE was calculated using the following formula: EtE = tFI/LE/PW × 100% (tFI presents the fluorescence intensity of retina (arbitration unit, AU); LE presents the label efficiency of each peptide which has been determined above; PW presents the peptide mass (mole)).
Fig. 1 The efficiency of FITC labeled PACAP/PACAP-TAT (a, b) and VIP/VIP-TAT (c, d) traversing to retina given in eye drops. The retina was separated 2 h after the eye drops and submitted to the fluorescence microscopic observation of FITC fluorescence signal (A, C) and the calculation of Efficiency of Traversing Eye to Retina (EtE) (b, d). The data are means ± SEM of four experiments

CC[C@H](C)[C@H](NC(=O)[C@H](CO)NC(=O)[C@H](CC(N)=O)NC(=O)[C@H](CC(C)C)NC(=O)[C@H](Cc1ccc(O)cc1)NC(=O)[C@H](CCCCN)NC(=O)[C@H](CCCCN)NC(=O)[C@@H](NC(=O)[C@H](C)NC(=O)[C@H](CCSC)NC(=O)[C@H](CCC(N)=O)NC(=O)[C@H](CCCCN)NC(=O)[C@H](CCCNC(=N)N)NC(=O)[C@H](CC(C)C)NC(=O)[C@H](CCCNC(=N)N)NC(=O)[C@@H](NC(=O)[C@H](Cc1ccc(O)cc1)NC(=O)[C@H](CC(N)=O)NC(=O)[C@H](CC(=O)O)NC(=O)[C@@H](NC(=O)[C@H](Cc1ccccc1)NC(=O)[C@@H](NC(=O)[C@H](C)NC(=O)[C@H](CC(=O)O)NC(=O)[C@H](CO)NC(=O)[C@@H](N)Cc1c[nH]cn1)C(C)C)[C@@H](C)O)[C@@H](C)O)C(C)C)C(=O)N[C@@H](CC(C)C)C(=O)N[C@@H](CC(N)=O)C(=O)NCC(=O)N[C@@H](CCCNC(=N)N)C(=O)N[C@@H](CCCCN)C(=O)N[C@@H](CCCCN)C(=O)N[C@@H](CCCNC(=N)N)C(=O)N[C@@H](CCCNC(=N)N)C(=O)N[C@@H](CCC(N)=O)C(=O)N[C@@H](CCCNC(=N)N)C(=O)N[C@@H](CCCNC(=N)N)C(=O)N[C@@H](CCCNC(=N)N)C(=O)N1CCC[C@H]1C(=O)N[C@@H](CCC(N)=O)C(=O)O [VIP-TAT]
Efficiency of Traversing Eye to Retina (EtE) (FITC labeled peptides, eye drops 100 nmol/kg, retina separated 2 h after, fluorescence 495 nm excitation/520 nm emission, % of FITC labeled peptide mass in retina to total, means ± SEM of four experiments (7 rats per group)): 3.05 ± 0.58% | EtE relative to the untagged peptide (PACAP-TAT/VIP-TAT vs PACAP/VIP, respectively, eye drops 100 nmol/kg, 2 h): about three-fold that of PACAP/VIP | FITC fluorescence density per area unit in the retina (fluorescence microscopy of retina 2 h after eye drops of FITC labeled peptides (100 nmol/kg), vs PACAP/VIP): much higher than in retinas treated with eye drops of PACAP/VIP
